Measured values reported in patent US7462625B2, “Gonadotropin-releasing hormone receptor antagonists and methods relating thereto” (Neurocrine Biosciences, Inc., priority 2000, dated 2008).
pKi: −log10 of the molar value.

target: T1, GnRH receptor (Homo sapiens, UniProt P30968); assay: GnRH receptor membrane binding assay; conditions: not given
T1 construct: expressed in transfected cells
T1 sequence (P30968 1-328): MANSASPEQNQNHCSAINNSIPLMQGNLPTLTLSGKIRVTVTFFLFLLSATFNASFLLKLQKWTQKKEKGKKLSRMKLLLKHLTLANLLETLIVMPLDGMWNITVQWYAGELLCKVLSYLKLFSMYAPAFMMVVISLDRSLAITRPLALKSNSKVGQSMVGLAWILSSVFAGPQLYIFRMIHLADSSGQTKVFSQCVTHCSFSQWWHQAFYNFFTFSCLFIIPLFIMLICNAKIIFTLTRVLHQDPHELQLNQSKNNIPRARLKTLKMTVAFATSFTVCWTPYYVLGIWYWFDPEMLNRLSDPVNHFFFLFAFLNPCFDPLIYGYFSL
Method: Radio-Iodination of GnRH Peptide
The GnRH analog is labeled by the chloramine-T method. […] The reaction is stopped by the addition of 60 μg sodium metabisulfite and the free iodine is removed by passing the iodinated mixture through a C-8 Sep-Pak cartridge (Millipore Corp., Milford, Mass.). The peptide is eluted with a small volume of 80% acetonitrile/water. […] The purified radioactive peptide is stored in 0.1% BSA/20% acetonitrile/0.1% TFA at −80° C. and can be used for up to 4 weeks.
GnRH Receptor Membrane Binding Assay
Cells stably, or transiently, transfected with GnRH receptor expression vectors are harvested, resuspended in 5% sucrose and homogenized using a polytron homogenizer (2×15 sec). Nucleii are removed by centrifugation (3000×g for 5 min.), and the supernatant centrifuged (20,000×g for 30 min, 4° C.) to collect the membrane fraction. The final membrane preparation is resuspended in binding buffer (10 mM Hepes (pH 7.5), 150 mM NaCl, and 0.1% BSA) and stored at −70° C. Binding reactions are performed in a Millipore MultiScreen 96-well filtration plate assembly with polyethylenimine coated GF/C membranes. […] The reaction is terminated after 90 minutes by application of vacuum and washing (2×) with phosphate buffered saline. Bound radioactivity is measured using 96-well scintillation counting (Packard Topcount) or by removing the filters from the plate and direct gamma counting. Ki values are calculated from competition binding data using non-linear least squares regression using the Prism software package (GraphPad Software).

pKi	Structure (SMILES)
> 7.00	Cc1cccc(-c2c(C)n(Cc3c(F)cccc3F)c(=O)n(C[C@H](N)c3ccccc3)c2=O)c1F [8-17]

same assay, conditions: GnRH receptor membrane binding assay, [125I]-labeled GnRH peptide; read-out: Ki

Structure (SMILES)	pKi
COc1cccc(-c2c(C)n(Cc3c(F)cccc3F)c(=O)n(CCN3CCC(N4CCCC4)CC3)c2=O)c1 [7-2]	> 7.00
COc1cccc(-c2c(C)n(Cc3c(F)cccc3F)c(=O)n(CCN3CCC(NC(=O)C(F)(F)F)C3)c2=O)c1 (stereo not shown) [7-3]	> 7.00
COc1cccc(-c2c(C)n(Cc3c(F)cccc3F)c(=O)n(CCN3CCC(NC(=O)OC(C)(C)C)C3)c2=O)c1 (stereo not shown) [7-4]	> 7.00
COc1cccc(-c2c(C)n(Cc3c(F)cccc3F)c(=O)n(CCN3CC4CC3CO4)c2=O)c1 (stereo not shown) [7-10]	> 7.00
Cc1cc(=O)n(C[C@@H](N)Cc2ccccc2)c(=O)n1Cc1c(F)cccc1F [8-4]	> 7.00
Cc1cc(=O)n(C[C@H](N)Cc2ccccc2)c(=O)n1Cc1c(F)cccc1F [8-7]	> 7.00
Cc1cc(=O)n(C[C@@H](N)CC2CCCCC2)c(=O)n1Cc1c(F)cccc1F [8-12]	> 7.00
COc1cccc(-c2c(C)n(Cc3c(F)cccc3F)c(=O)n(C[C@H](N)COCc3ccccc3)c2=O)c1F [8-15]	> 7.00
COc1cccc(-c2c(C)n(Cc3c(F)cccc3F)c(=O)n(C[C@@H](N)CC(C)C)c2=O)c1F [8-23]	> 7.00
COc1cccc(-c2c(C)n(Cc3c(F)cccc3F)c(=O)n(C[C@H](N)C(C)C)c2=O)c1F [8-25]	> 7.00
COc1cccc(-c2c(C)n(Cc3c(F)cccc3F)c(=O)n(C[C@H](N)C(=O)Nc3ccccc3)c2=O)c1 [8-51]	> 7.00
COc1cccc(Oc2ccc(-c3c(C)n(Cc4c(F)cccc4F)c(=O)n(C[C@H](N)c4ccccc4)c3=O)cc2)c1 [8-68]	> 7.00
Cc1c(-c2ccc(Oc3cccc(Cl)c3)cc2)c(=O)n(C[C@H](N)c2ccccc2)c(=O)n1Cc1c(F)cccc1F [8-70]	> 7.00
Cc1c(-c2ccc(Cl)s2)c(=O)n(C[C@H](N)c2ccccc2)c(=O)n1Cc1c(F)cccc1F [8-75]	> 7.00

Results, then the compound that gave them:

pKi	Structure (SMILES)
> 7.00	COc1cccc(-c2c(C)n(Cc3c(F)cccc3F)c(=O)n(CCN(C)Cc3ccccn3)c2=O)c1 [1-3]
> 7.00	CCN(CCc1ccccn1)CCn1c(=O)c(-c2cccc(OC)c2)c(C)n(Cc2c(F)cccc2F)c1=O [1-10]
> 7.00	COc1cccc(-c2c(C)n(Cc3c(F)cccc3F)c(=O)n(CCN(C)CCc3cccc(Cl)n3)c2=O)c1 [1-11]
> 7.00	COc1cccc(-c2c(C)n(Cc3c(F)cccc3F)c(=O)n(CCN(CCc3ccccn3)CC3CC3)c2=O)c1 [1-12]
> 7.00	CCN1CCC(N(CC)CCn2c(=O)c(-c3cccc(OC)c3)c(C)n(Cc3c(F)cccc3F)c2=O)C1 (stereo not shown) [1-13]
> 7.00	Cc1c(-c2ccc3c(c2)OCO3)c(=O)n(CCN(C)CCc2ccccn2)c(=O)n1Cc1c(F)cccc1F [3-1]
> 7.00	CCN(CCc1ccccn1)CCn1c(=O)c(-c2ccc3c(c2)OCO3)c(C)n(Cc2c(F)cccc2F)c1=O [3-4]
> 7.00	Cc1c(-c2ccccc2F)c(=O)n(CCN(C)CCc2ccccn2)c(=O)n1Cc1c(F)cccc1F [6-1]
> 7.00	Cc1c(-c2ccc(Oc3ccccc3)cc2)c(=O)n(CCN(C)CCc2ccccn2)c(=O)n1Cc1c(F)cccc1F [6-2]
> 7.00	Cc1c(-c2ccc3c(c2)OCCO3)c(=O)n(CCN(C)CCc2ccccn2)c(=O)n1Cc1c(F)cccc1F [6-3]
> 7.00	Cc1c(-c2ccc(NC(=O)OCC(C)C)cc2)c(=O)n(CCN(C)CCc2ccccn2)c(=O)n1Cc1c(F)cccc1F [6-8]
> 7.00	Cc1cc(-c2c(C)n(Cc3c(F)cccc3F)c(=O)n(C[C@H](N)c3ccccc3)c2=O)ccc1F [8-44]
> 7.00	COc1ccc(-c2c(C)n(Cc3c(F)cccc3F)c(=O)n(C[C@H](N)c3ccccc3)c2=O)cn1 [8-58]
> 7.00	CCOc1cccc(-c2c(C)n(Cc3c(F)cccc3F)c(=O)n(C[C@H](N)c3ccccc3)c2=O)c1 [8-59]
> 7.00	CSc1cccc(-c2c(C)n(Cc3c(F)cccc3F)c(=O)n(C[C@H](N)c3ccccc3)c2=O)c1 [8-61]
> 7.00	COc1ccc(-c2c(C)n(Cc3c(F)cccc3F)c(=O)n(C[C@H](N)c3ccccc3)c2=O)cc1 [8-100]
